The source of these data is PubChem BioAssay (NCI).

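These data come from cells grown in 96-well plates and exposed to compound for 48 hours at five concentrations. Here, GI50 denotes the concentration required for 50% inhibition of growth. The concentration for full growth arrest is given as TGI.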 Where only a bound is given, the exact number is not on record here.

Some test systems named below: 786-0 renal; HL-60(TB) leukemia; IGROV1 ovarian; MOLT-4 leukemia; OVCAR-4 ovarian; SF-539 CNS; SNB-75 CNS; U251 CNS.
Assay in all cases: NCI-60 cell line screen, 48 h

In the case of `OCCCCC#Cc1ccccc1C#Cc1ccc(C(F)(F)F)cc1`, the GI50 in the assay with 786-0 renal was 4.72 µM; in the assay on HL-60(TB) leukemia, 17.7 µM; in the assay with IGROV1 ovarian it was 17.6 µM; in the assay with MOLT-4 leukemia, 13.6 µM; in the assay on OVCAR-4 ovarian, 11.2 µM; with SF-539 CNS it was 19.7 µM. Also, the GI50 was 15.8 µM with SNB-75 CNS and 14.8 µM with U251 CNS. Moreover, the TGI in the assay on 786-0 renal was 18.1 µM; with HL-60(TB) leukemia it was 38.8 µM; with IGROV1 ovarian, 32 µM; in the assay with MOLT-4 leukemia, 31.4 µM; with OVCAR-4 ovarian, 23.9 µM; with SF-539 CNS, 37.2 µM. Further, the TGI with SNB-75 CNS worked out at 30.2 µM; in the assay with U251 CNS, 28.6 µM.

For the molecule `COC(=O)[C@H](Cc1cn(C)cn1)NC(=O)[C@@H](NC(=O)Nc1cc(C(F)(F)F)cc(C(F)(F)F)c1)C(C)C`, the GI50 with 786-0 renal was more than 10 µM; in the assay with HL-60(TB) leukemia it was more than 10 µM; in the assay on IGROV1 ovarian, 6.15 µM; in the assay with MOLT-4 leukemia, 3.16 µM; in the assay on OVCAR-4 ovarian it was 4.58 µM; in the assay on SF-539 CNS it was more than 10 µM. For the same molecule, the GI50 is 6.44 µM in the assay on SNB-75 CNS and more than 10 µM with U251 CNS. The TGI in the assay with 786-0 renal, with HL-60(TB) leukemia, with IGROV1 ovarian, in the assay on MOLT-4 leukemia, in the assay on OVCAR-4 ovarian and in the assay on SF-539 CNS was more than 10 µM each time. The TGI in the assay on SNB-75 CNS and with U251 CNS was more than 10 µM in each case.

Regarding `CCOc1ccc(Nc2nc(-c3c(C)nc4ncccn34)cs2)cc1`, the GI50 in the assay on 786-0 renal is 0.0392 µM; with HL-60(TB) leukemia, 0.0216 µM; with IGROV1 ovarian, 0.0797 µM; with MOLT-4 leukemia, 0.0539 µM; in the assay on SF-539 CNS, 0.0227 µM. The TGI with 786-0 renal amounted to 18.4 µM; in the assay with HL-60(TB) leukemia, 0.0706 µM; in the assay with IGROV1 ovarian, 26.2 µM; with MOLT-4 leukemia, 20.4 µM; in the assay on SF-539 CNS, 0.0822 µM.

As for `Nc1ncnc2c1nc(Cl)n2C1OC(CO)C(O)C1O` (stereo not given), the TGI with 786-0 renal was more than 100 µM; with HL-60(TB) leukemia it was 3.97 µM; in the assay with IGROV1 ovarian, more than 100 µM; in the assay on MOLT-4 leukemia it was more than 100 µM; with OVCAR-4 ovarian, more than 100 µM; with SF-539 CNS, more than 94.7 µM. Moreover, the TGI is more than 56.6 µM in the assay with SNB-75 CNS and more than 100 µM in the assay on U251 CNS.

`Fc1ccc(-c2nn3c(COc4ccc(Cl)cc4)nnc3s2)cc1Oc1ccccc1`: the GI50 is 14.2 µM in the assay with 786-0 renal; more than 100 µM with HL-60(TB) leukemia; 22.2 µM in the assay with IGROV1 ovarian; 3.51 µM in the assay with MOLT-4 leukemia; 50.4 µM in the assay on OVCAR-4 ovarian; 22.5 µM in the assay with SF-539 CNS. Besides, the GI50 in the assay with SNB-75 CNS was 61 µM; with U251 CNS, 25.1 µM. Besides, the TGI was 30 µM with 786-0 renal; more than 100 µM in the assay on HL-60(TB) leukemia; more than 54.1 µM in the assay with IGROV1 ovarian; 17.7 µM in the assay with MOLT-4 leukemia; more than 100 µM with OVCAR-4 ovarian; more than 55.5 µM in the assay on SF-539 CNS. In addition, the TGI in the assay with SNB-75 CNS is more than 100 µM; in the assay on U251 CNS, more than 53.5 µM.

With `O=C(/C=C(\[O-])c1ccccc1)CCCCCCC(=O)/C=C(\[O-])c1ccccc1.O=C(/C=C(\[O-])c1ccccc1)CCCCCCC(=O)/C=C(\[O-])c1ccccc1.O=C(/C=C(\[O-])c1ccccc1)CCCCCCC(=O)/C=C(\[O-])c1ccccc1.[Nd+3].[Nd+3]`, the GI50 is more than 50 µM in the assay with 786-0 renal; 3.05 µM in the assay with HL-60(TB) leukemia; more than 50 µM in the assay with IGROV1 ovarian; 27.5 µM in the assay on MOLT-4 leukemia; more than 50 µM in the assay on OVCAR-4 ovarian; more than 50 µM in the assay with SF-539 CNS. Besides, the results for the GI50 in the assay with SNB-75 CNS and with U251 CNS were 3.3 µM and more than 50 µM, respectively. Moreover, the TGI with 786-0 renal, in the assay on HL-60(TB) leukemia, with IGROV1 ovarian, with MOLT-4 leukemia, in the assay with OVCAR-4 ovarian and with SF-539 CNS was more than 50 µM throughout. For the same molecule, the TGI with SNB-75 CNS and in the assay on U251 CNS was more than 50 µM throughout.

For `CCCCCCCCCCCCOC1C(C(CC(=O)N2CCN(Cc3ccc4c(c3)OCO4)CC2)NS(=O)(=O)c2cc(Cl)cc(Cl)c2)OC2OC(C)(C)OC21` (stereo not given), the GI50 in the assay on 786-0 renal is 20.4 µM; in the assay with HL-60(TB) leukemia, 10.8 µM; in the assay with IGROV1 ovarian, 14 µM; in the assay with MOLT-4 leukemia, 5.03 µM; in the assay on OVCAR-4 ovarian, 18.1 µM; with SF-539 CNS, 43 µM. The figures for the GI50 in the assay on SNB-75 CNS and in the assay with U251 CNS were more than 45 µM and 12.5 µM, respectively. Further, the TGI in the assay with 786-0 renal was more than 86.5 µM; in the assay with HL-60(TB) leukemia, 78.3 µM; in the assay with IGROV1 ovarian, more than 100 µM; with MOLT-4 leukemia it was more than 100 µM; with OVCAR-4 ovarian, more than 100 µM; with SF-539 CNS it was more than 100 µM. In addition, the TGI in the assay with SNB-75 CNS and in the assay with U251 CNS was more than 100 µM each time.

For the molecule `NC(N)=N/N=C/c1c(-c2ccncc2)nc2sc(Cl)cn12`, the GI50 in the assay on 786-0 renal is 6.63 µM; in the assay on HL-60(TB) leukemia, 19 µM; with IGROV1 ovarian, 42.7 µM; with MOLT-4 leukemia it was 2.83 µM; in the assay on OVCAR-4 ovarian, 1.57 µM; with SF-539 CNS, 7.06 µM. The results for the GI50 in the assay with SNB-75 CNS and with U251 CNS were 4.89 µM and 1.94 µM, respectively. Besides, the TGI was 17 µM in the assay on 786-0 renal; 45 µM in the assay on HL-60(TB) leukemia; more than 100 µM with IGROV1 ovarian; 7.26 µM with MOLT-4 leukemia; 6.16 µM in the assay with OVCAR-4 ovarian; 13.7 µM with SF-539 CNS. Also, the TGI was 18.9 µM in the assay on SNB-75 CNS and 3.93 µM in the assay on U251 CNS.

As for `N#CCC1(n2cc(-c3ncnc4[nH]ccc34)cn2)CN(C2CCN(C(=O)c3ccnc(C(F)(F)F)c3F)CC2)C1`, the GI50 in the assay with 786-0 renal was more than 100 µM; in the assay with HL-60(TB) leukemia, more than 100 µM; with IGROV1 ovarian, more than 100 µM; with MOLT-4 leukemia, 49.9 µM; in the assay with OVCAR-4 ovarian it was more than 100 µM; in the assay on SF-539 CNS, 37.9 µM. Besides, the GI50 was 25.7 µM in the assay on SNB-75 CNS and more than 100 µM with U251 CNS. Also, the TGI in the assay on 786-0 renal, in the assay with HL-60(TB) leukemia, in the assay with IGROV1 ovarian, in the assay on MOLT-4 leukemia, in the assay with OVCAR-4 ovarian and in the assay with SF-539 CNS was more than 100 µM throughout. Further, the TGI in the assay with SNB-75 CNS and in the assay on U251 CNS was more than 100 µM each time.
